Source: the NIST ThermoML archive (doi:10.1021/je100909b)

Experiment: mn = molality of the nth substance listed, in mol/kg
Conditions: 101 kPa, Liquid; for mass density: Vibrating tube method

NCC(=O)O [2-aminoacetic acid] + O
speed of sound [m/s], Sing-around technique in a fixed-path interferometer
Conditions	288.15 K	298.15 K	308.15 K	318.15 K
m1 = 0.05362	1468.9	1499.5	1522.5	1539
m1 = 0.1083	–	–	1525.3	–
m1 = 0.1287	1473.1	1503.4	–	1542.7
m1 = 0.1664	–	–	1528.2	–
m1 = 0.191	1476.6	1506.8	–	1545.7
m1 = 0.2522	1480.1	1510	–	1548.7
m1 = 0.263	–	–	1533.1	–
m1 = 0.3423	1485.3	1514.9	–	1553.1
m1 = 0.3737	–	–	1538.8	–
m1 = 0.4967	–	–	1545.2	–
m1 = 0.5062	1494.9	1523.9	–	1561.3
m1 = 0.562	1498.1	1526.9	–	1564.1

Conditions	viscosity [mPa·s]
288.15 K, m1 = 0.06844	1.149
288.15 K, m1 = 0.1393	1.159
288.15 K, m1 = 0.2552	1.176
288.15 K, m1 = 0.3468	1.19
288.15 K, m1 = 0.4241	1.202
288.15 K, m1 = 0.5002	1.213
298.15 K, m1 = 0.06025	0.8979
298.15 K, m1 = 0.1223	0.9055
298.15 K, m1 = 0.1933	0.9138
298.15 K, m1 = 0.2798	0.9248
298.15 K, m1 = 0.4145	0.942
298.15 K, m1 = 0.4859	0.9507
308.15 K, m1 = 0.06295	0.7261
308.15 K, m1 = 0.1248	0.7325
308.15 K, m1 = 0.2476	0.7455
308.15 K, m1 = 0.3345	0.7536
308.15 K, m1 = 0.4195	0.7624
308.15 K, m1 = 0.4709	0.7672
318.15 K, m1 = 0.06088	0.6017
318.15 K, m1 = 0.1248	0.6064
318.15 K, m1 = 0.2476	0.6176
318.15 K, m1 = 0.3345	0.6253
318.15 K, m1 = 0.4195	0.6329
318.15 K, m1 = 0.4709	0.6356

CCC(N)C(=O)O (stereo not drawn) [(.+-.)-α-aminobutyric acid] + O
speed of sound [m/s], Sing-around technique in a fixed-path interferometer
Conditions	m1 = 0.05062	m1 = 0.1107	m1 = 0.2175	m1 = 0.2738	m1 = 0.3587	m1 = 0.4523
288.15 K	1469.9	1474.7	1483.4	1488	1494.9	1502.7
298.15 K	–	1505.2	1513.6	1518	1524.7	1532.1
308.15 K	1523.4	1527.7	1535.4	1539.4	1545.5	1552.3
318.15 K	1539.9	1544	1551.2	1555.1	1560.9	1567.3

Conditions	viscosity [mPa·s]
288.15 K, m1 = 0.05106	1.159
288.15 K, m1 = 0.09089	1.181
288.15 K, m1 = 0.1764	1.22
288.15 K, m1 = 0.2253	1.242
288.15 K, m1 = 0.2685	1.262
288.15 K, m1 = 0.4044	1.324
298.15 K, m1 = 0.03245	0.8996
298.15 K, m1 = 0.05413	0.9064
298.15 K, m1 = 0.07577	0.9126
298.15 K, m1 = 0.108	0.9222
298.15 K, m1 = 0.1433	0.9326
298.15 K, m1 = 0.1888	0.9459
298.15 K, m1 = 0.2162	0.9534
308.15 K, m1 = 0.04831	0.731
308.15 K, m1 = 0.08861	0.7438
308.15 K, m1 = 0.1735	0.7667
308.15 K, m1 = 0.2198	0.7794
308.15 K, m1 = 0.2655	0.7915
308.15 K, m1 = 0.3962	0.8261
318.15 K, m1 = 0.04911	0.6052
318.15 K, m1 = 0.08886	0.6122
318.15 K, m1 = 0.1735	0.6267
318.15 K, m1 = 0.2196	0.6354
318.15 K, m1 = 0.2658	0.6432
318.15 K, m1 = 0.3964	0.6658

CC(N)C(=O)O (stereo not drawn) [DL-2-aminopropanoic acid] + O
speed of sound [m/s], Sing-around technique in a fixed-path interferometer
Conditions	m1 = 0.07777	m1 = 0.1126	m1 = 0.2059	m1 = 0.3139	m1 = 0.3825	m1 = 0.4409
288.15 K	1471.3	1473.8	1480.4	1488.1	1493	1497.2
298.15 K	1501.8	1504.1	1510.4	1517.7	1522.3	1526.3
308.15 K	1524.6	1526.7	1532.4	1539.1	1543.4	1547
318.15 K	1540.9	1542.8	1548.2	1554.4	1558.4	1561.8

Conditions	viscosity [mPa·s]
288.15 K, m1 = 0.04982	1.153
288.15 K, m1 = 0.1109	1.172
288.15 K, m1 = 0.2183	1.204
288.15 K, m1 = 0.2612	1.217
288.15 K, m1 = 0.3107	1.231
288.15 K, m1 = 0.4536	1.272
288.15 K, m1 = 0.5099	1.29
298.15 K, m1 = 0.07866	0.9082
298.15 K, m1 = 0.1934	0.9331
298.15 K, m1 = 0.3188	0.9584
298.15 K, m1 = 0.4275	0.9832
298.15 K, m1 = 0.5485	1.013
298.15 K, m1 = 0.593	1.018
298.15 K, m1 = 0.7354	1.057
298.15 K, m1 = 0.8417	1.072
298.15 K, m1 = 0.9533	1.089
308.15 K, m1 = 0.04619	0.7279
308.15 K, m1 = 0.107	0.7391
308.15 K, m1 = 0.2145	0.7583
308.15 K, m1 = 0.2578	0.7656
308.15 K, m1 = 0.3071	0.7745
308.15 K, m1 = 0.3489	0.7816
308.15 K, m1 = 0.4983	0.8076
318.15 K, m1 = 0.04529	0.6029
318.15 K, m1 = 0.1064	0.6119
318.15 K, m1 = 0.2141	0.6275
318.15 K, m1 = 0.2564	0.6331
318.15 K, m1 = 0.3064	0.6409
318.15 K, m1 = 0.3492	0.647
318.15 K, m1 = 0.4205	0.6561

CC(C)C[C@H](N)C(=O)O [L-leucine] + O
speed of sound [m/s], Sing-around technique in a fixed-path interferometer
Conditions	m1 = 0.01941	m1 = 0.02155	m1 = 0.0281	m1 = 0.03296	m1 = 0.04083	m1 = 0.05231	m1 = 0.06632	m1 = 0.07033
288.15 K	–	1468.6	1469.5	1470.1	1471.1	–	1474.4	1475
298.15 K	1498.8	–	1499.9	1500.5	–	1502.7	1504.4	–
308.15 K	–	–	–	1523.2	1524.1	1525.2	1526.7	1527.1
318.15 K	–	–	1539.1	1539.5	1540.2	1541.3	1542.6	1543

Conditions	viscosity [mPa·s]
288.15 K, m1 = 0.01977	1.151
288.15 K, m1 = 0.02401	1.153
288.15 K, m1 = 0.03189	1.158
288.15 K, m1 = 0.04067	1.163
288.15 K, m1 = 0.04511	1.166
288.15 K, m1 = 0.0503	1.169
298.15 K, m1 = 0.02228	0.9009
298.15 K, m1 = 0.03694	0.9076
298.15 K, m1 = 0.04045	0.9094
298.15 K, m1 = 0.05353	0.9156
298.15 K, m1 = 0.06724	0.9222
298.15 K, m1 = 0.08113	0.928
308.15 K, m1 = 0.0193	0.7262
308.15 K, m1 = 0.02231	0.7271
308.15 K, m1 = 0.03116	0.7301
308.15 K, m1 = 0.03988	0.7332
308.15 K, m1 = 0.04441	0.7347
308.15 K, m1 = 0.05005	0.7366
318.15 K, m1 = 0.01898	0.6012
318.15 K, m1 = 0.02214	0.602
318.15 K, m1 = 0.03098	0.6043
318.15 K, m1 = 0.03968	0.6064
318.15 K, m1 = 0.04439	0.6076
318.15 K, m1 = 0.04995	0.6092

CC(C)[C@H](N)C(=O)O [L-valine] + O
speed of sound [m/s], Sing-around technique in a fixed-path interferometer
Conditions	m1 = 0.0197	m1 = 0.03559	m1 = 0.04365	m1 = 0.05244	m1 = 0.0586	m1 = 0.07142	m1 = 0.08303
288.15 K	–	1469.6	1470.5	1471.4	1472	1473.4	1474.6
298.15 K	–	1500.1	1500.9	1501.7	1502.3	1503.6	1504.7
308.15 K	–	1523	1523.8	1524.6	1525.1	1526.3	1527.3
318.15 K	1538.1	–	1540	1540.7	1541.2	1542.3	1543.2

Conditions	viscosity [mPa·s]
288.15 K, m1 = 0.02209	1.15
288.15 K, m1 = 0.03342	1.157
288.15 K, m1 = 0.04176	1.161
288.15 K, m1 = 0.04553	1.163
288.15 K, m1 = 0.0505	1.166
288.15 K, m1 = 0.05576	1.169
298.15 K, m1 = 0.02235	0.8987
298.15 K, m1 = 0.03324	0.9027
298.15 K, m1 = 0.04271	0.9064
298.15 K, m1 = 0.04775	0.9082
298.15 K, m1 = 0.05319	0.9101
298.15 K, m1 = 0.05741	0.9118
308.15 K, m1 = 0.02114	0.7258
308.15 K, m1 = 0.03147	0.7288
308.15 K, m1 = 0.04157	0.7319
308.15 K, m1 = 0.04549	0.7331
308.15 K, m1 = 0.04791	0.7337
308.15 K, m1 = 0.05464	0.7358
318.15 K, m1 = 0.02149	0.6014
318.15 K, m1 = 0.03166	0.6038
318.15 K, m1 = 0.04179	0.6061
318.15 K, m1 = 0.04524	0.6068
318.15 K, m1 = 0.0474	0.6073
318.15 K, m1 = 0.05407	0.609

[Cl][Cd][Cl] [cadmium chloride] + O
Conditions	mass density [kg/m3]	speed of sound [m/s]	viscosity [mPa·s]
288.15 K, m1 = 0.1	1015.69	1479	1.144
288.15 K, m1 = 0.5	1077.05	1484	1.223
288.15 K, m1 = 1	1149.37	1492.8	1.334
288.15 K, m1 = 1.5	1205.71	1496.2	1.472
298.15 K, m1 = 0.1	1012.89	1501.6	0.926
298.15 K, m1 = 0.5	1072.65	1507.2	1.036
298.15 K, m1 = 1	1140.72	1511.4	1.16
298.15 K, m1 = 1.5	1199.85	1514.4	1.226
308.15 K, m1 = 0.1	1009.59	1522.4	0.7258
308.15 K, m1 = 0.5	1068.5	1525.2	0.8259
308.15 K, m1 = 1	1135.37	1527.4	0.9138
308.15 K, m1 = 1.5	1193.02	1530.2	0.9824
318.15 K, m1 = 0.1	1005.51	1538.6	0.6097
318.15 K, m1 = 0.5	1063.8	1541.8	0.6739
318.15 K, m1 = 1	1129.17	1543.2	0.7467
318.15 K, m1 = 1.5	1186	1546.2	0.8197

O [water] + [Cl][Cd][Cl]
m2 = 0
Conditions	viscosity [mPa·s]
288.15 K	1.138
298.15 K	0.8903
308.15 K	0.7195
318.15 K	0.5963
